Active and inactive are the calls of the source.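 The calls were made as follows: active = inhibition of at least 30% at one or more tested concentrations; inactive = inhibition below 30% at every dose.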
Assay: inhibitors of Bluetongue virus cytopathic effect, confirmation, arbovirus, BSR cells (AID 1250)
Conditions: BSR cells, Bluetongue virus CPE, ATP luminescence, 72 h; at 20 µM (top of the series)
In the case of CCSc1nnc(NC(=O)c2ccc(Br)s2)s1, the CPE inhibition is reported as 16.8% (inactive). For Cc1ccc(NC(=O)/C(=C/C=C/c2ccccc2)NC(=O)c2ccccc2)cc1, the CPE inhibition was 19.4% (inactive). In the case of O=C(Nc1ccccc1C(=O)O)c1cccc(NC(=O)c2ccc(Br)o2)c1, the CPE inhibition is reported as 7.57% (inactive). With CC(=O)NCC1=C(NC(C)=O)C2CC1C(C)(C)C2C (stereo not drawn) the CPE inhibition was 2.41% (inactive). In the case of O=C(Nc1ccccc1C(=O)O)c1ccc(Br)c(S(=O)(=O)NCc2ccccc2)c1, the CPE inhibition is reported as 21.6% (inactive). For C=CCn1c(SCC(=O)Nc2nc3ccccc3s2)nnc1-c1ccccc1O, the CPE inhibition was 21.1% (inactive). With O=C(Nc1nc(-c2ccc3c(c2)OCO3)cs1)C1COc2ccccc2O1 (stereo not drawn) the CPE inhibition was 22.7% (inactive). With CCOc1ccc(S(=O)(=O)N2CCN(c3ccccc3OC)CC2)c2cccnc12 the CPE inhibition was 17.1% (inactive). In the case of COc1ccc(Br)cc1CN(C)CC(=O)Nc1c(Cl)cccc1Cl, the CPE inhibition is reported as 28.5% (inactive). For COc1ccccc1NC(=S)NCCSc1ccc(C)cc1, the CPE inhibition was 10.1% (inactive). With O=C(NC1CCN(Cc2ccccc2)CC1)c1cccc(S(=O)(=O)Nc2cc(C(F)(F)F)ccc2Cl)c1 the CPE inhibition was 21.7% (inactive). For O=C1c2[nH]nc(-c3ccccc3O)c2C(c2ccc(F)cc2)N1CC1CCCO1 (stereo not drawn), the CPE inhibition was 10.9% (inactive). In the case of CCCCOc1ccc(C(O)C(CN2CCCCC2)c2ccccc2)cc1 (stereo not drawn), the CPE inhibition is reported as 12.5% (inactive). In the case of C=CCNC(=O)c1onc(CSc2ccc(C(C)C)cc2)c1C(=O)O, the CPE inhibition is reported as 1.33% (inactive). In the case of CC(C)CC1=NN2C(=N)/C(=C\c3coc4ccccc4c3=O)C(=O)N=C2S1, the CPE inhibition is reported as 13.5% (inactive). For N#CCSc1nc(N)c(C#N)c(C2CCCCC2)c1C#N, the CPE inhibition was 6.59% (inactive). With COc1ccc2nc(NC(=O)C3=NN(c4ccccc4)C(=O)CC3)sc2c1 the CPE inhibition was -2.13% (inactive). With Cc1ccccc1N=C1NC(=O)/C(=C/c2cccn2-c2cccc(C(=O)O)c2)S1 the CPE inhibition was 21.3% (inactive). In the case of C/C(=N\NC(=O)c1c(Cl)c(C)nn1C)c1ccc(NC(=O)c2ccncc2)cc1, the CPE inhibition is reported as 17.7% (inactive). For OCC1(CCOc2ccccc2)CCN(Cc2nc3ccc(F)cc3[nH]2)CC1, the CPE inhibition was 7.83% (inactive). For O=C1NC(=Nc2ccc(Cl)cc2)SC1Cc1cccc(Cl)c1Cl (stereo not drawn), the CPE inhibition was 12.4% (inactive). In the case of Fc1ccccc1N1CCN(Cc2nc(-c3ccc(Cl)cc3Cl)no2)CC1, the CPE inhibition is reported as 19.9% (inactive). In the case of CCOC(=O)c1c(O)c2c(n(Cc3ccco3)c1=O)CCCC2, the CPE inhibition is reported as 14.7% (inactive). For CCOC(=O)C(NC(=O)c1cccc(Cl)c1)(OCc1ccc(F)cc1)C(F)(F)F (stereo not drawn), the CPE inhibition was -3.2% (inactive). In the case of CCC(C)Sc1nc2c(c(=O)[nH]1)C(c1cccs1)C1=C(CCCC1=O)N2 (stereo not drawn), the CPE inhibition is reported as 10.1% (inactive). In the case of COCCN1C(=O)/C(=C/c2ccc(Oc3ccc([N+](=O)[O-])cn3)c(OC)c2)SC1=Nc1ccccc1, the CPE inhibition is reported as 25.6% (inactive). In the case of CCOc1ccc2nc(NC(=O)C3CCN(S(=O)(=O)c4cnc[nH]4)CC3)sc2c1, the CPE inhibition is reported as 11.9% (inactive). In the case of Cc1ccc(C(=O)c2coc3cc([N+](=O)[O-])c(O)c([N+](=O)[O-])c23)cc1, the CPE inhibition is reported as 18.6% (inactive). With Oc1c(Br)cc(C2N=C(c3ccccc3)NO2)cc1Br (stereo not drawn) the CPE inhibition was 23.9% (inactive). For Cc1ccc(-n2nc(C)c(NC(=O)CCl)c2C)cc1, the CPE inhibition was 13.3% (inactive). With CC1CC1C(=O)Nc1nc(-c2ccc(Cl)s2)cs1 (stereo not drawn) the CPE inhibition was 12% (inactive). With CCCCN(CCCC)CC(O)COc1ccccc1Br (stereo not drawn) the CPE inhibition was 15.3% (inactive). With CCOc1ccc2nc(NC(=O)C3=NN(c4ccccc4)C(=O)CC3)sc2c1 the CPE inhibition was 25% (inactive). For COc1ccc(-c2noc(CSc3nc(-c4ccccc4)cc(=O)[nH]3)n2)cc1OC, the CPE inhibition was 26.6% (inactive). With O=C(CCl)N=c1sccn1Cc1cccc2ccccc12 the CPE inhibition was 7.67% (inactive). In the case of CCOC(=O)C1(CCCc2ccccc2)CCN(C2CCSCC2)CC1, the CPE inhibition is reported as 11.3% (inactive). For CCc1ccc(CCC(=O)Nc2ccccc2C(=O)O)o1, the CPE inhibition was 21.9% (inactive). With COCCn1c(SCc2nc3scc(-c4ccc(Cl)cc4)c3c(=O)[nH]2)nnc1-c1cccc(C)c1 the CPE inhibition was 17.4% (inactive). In the case of Nc1c(-c2ccccc2)c(CSc2nc3ccccc3[nH]2)nn1-c1cccc(Cl)c1, the CPE inhibition is reported as 23.8% (inactive). With O=C(Nc1nc(-c2ccccc2)cs1)c1ccc(=O)[nH]c1 the CPE inhibition was 12% (inactive). In the case of O=C1CC(N2CCC(Cc3ccccc3)CC2)C(=O)N1CCc1ccccc1 (stereo not drawn), the CPE inhibition is reported as 3.89% (inactive). In the case of Cc1cccc(OCC(=O)Nc2cccc(C(=O)Nc3ccccc3C(=O)O)c2)c1, the CPE inhibition is reported as 27.3% (inactive). In the case of O=c1oc(-c2cccs2)nc2sc3c(c12)CCCC3, the CPE inhibition is reported as 21.2% (inactive). With N#Cc1c(-c2ccccc2)nc(SCC(=O)N(c2ccccc2)c2ccccc2)[nH]c1=O the CPE inhibition was 12.2% (inactive). For Oc1ccc(-c2n[nH]c(=S)n2-c2ccc3c(c2)OCCO3)c(O)c1, the CPE inhibition was 18.1% (inactive). For CCCCn1c(SCc2cccc([N+](=O)[O-])c2)nc2ccsc2c1=O, the CPE inhibition was 3.1% (inactive). For COc1ccccc1/C=C/C=C1N=C(/C=C/c2ccc(Cl)cc2)OC/1=O, the CPE inhibition was 25.2% (inactive). In the case of Cc1cc(C)c(NC(=S)NC(=O)c2ccc(-c3ccccc3)cc2)c(C)c1, the CPE inhibition is reported as 14.9% (inactive).

— PubChem BioAssay AID1250 (SRMLSC, 2008)
